# Experimental data from patent publication US20070059269A1, “Administration of 8-hexadecene-1,16-dicarboxylic acid for promoting cohesion of the epidermal horny layer” (L'OREAL, priority 2005, published 2007).
# Assays:
# Assay type in all cases: cell-based
# [1] = tested on: Cdsn (corneodesmosine); test: Differential expression by cDNA minichips in NHEK: corneodesmosine (Cdsn); conditions: normal human epidermal keratinocytes (NHEK), cDNA array
# Experimental: (§1) Analysis of the Differential expression by Minichips:
# (§2) In order to study the activity of a product on the formation of the horny layer, the effect of the product on the expression of genes known to be modulated in keratinocytes during their transformation into corneocytes is analyzed.
# (§3) The analysis is performed using dedicated minichips, consisting of cDNA membrane arrays known to those skilled in the art for their relationship with re-epithelialization and/or cohesion of the horny layer, especially such as the LEP proteins (late epidermal proteins), corneodesmosines and epidermal growth factor HBEGF (human heparin-binding EGF-like growth factor).
# (§4) The cell model used comprises normal human epidermal keratinocytes (NHEK). The keratinocytes are cultured in SFM medium with 0.25 ng/ml EGF and 25 μg/ml of pituitary extract at 37° C. and 5% CO2. The keratinocytes are inoculated in 25 cm^2 dishes and precultured in whole SFM medium, and then placed in EGF-free and pituitary extract-free SFM medium.
# (§5) The test products are applied at the non-irritant and non-cytotoxic concentrations defined in a).
# (§6) The controls correspond to the same conditions, in the absence of product.
# (§7) The cells are then rinsed with PBS and then lysed and the messenger RNA is extracted and purified using the kit Chemagic mRNA Direct kit marketed by Chemagen.
# (§8) The RNA of each culture is then reverse-transcripted using a pool of primers corresponding to the cDNAs immobilized on the membranes (probes) and a ^33P-labelled deoxynucleotide triphosphate.
# (§9) Multiple cDNA “target” labeled sequences were thus prepared for each culture. These targets were then hybridized, under optimal conditions, with the excess “probe” cDNAs bound to the membranes. […] The membrane analysis was performed using the ImageQuant TL software (Image Analysis, Amersham Biosciences) and the data recorded were then processed on Excel. The differential expression of the various genes following the treatment is thus measured by comparison with the corresponding control.
# [2] = tested on: LEP16; test: Differential expression by cDNA minichips in NHEK: LEP16; conditions: normal human epidermal keratinocytes (NHEK), cDNA array
# Experimental: as §1, §2, §3, §4, §5, §6, §7, §8, §9
# [3] = tested on: HBEGF (human heparin-binding EGF-like growth factor); test: Differential expression by cDNA minichips in NHEK: HBEGF; conditions: 1 μg/ml, normal human epidermal keratinocytes (NHEK), cDNA array
# Experimental: as §1, §2, §3
# as §4, with “medium. […]” for “medium.”
# Multiple cDNA “target” labeled sequences were thus prepared for each culture. […] The membrane analysis was performed using the ImageQuant TL software (Image Analysis, Amersham Biosciences) and the data recorded were then processed on Excel. The differential expression of the various genes following the treatment is thus measured by comparison with the corresponding control.
# [4] = 1 μg/ml, listed as 8-hexadecene-1,16-dicarboxylic acid
smiles,measurement,setting,value
"O=C1O[C@H]([C@@H](O)CO)C(O)=C1O [Ascorbic acid, reference compound]","Markers for intercorneocytic cohesion (Cdsn): Cdsn expression, multiplicative factor vs control",[1]; 100 μg/ml,Cdsn (×1.7)
"O=C(O)CCCCCCCC=CCCCCCCCC(=O)O [Dioic acid, 8-hexadecene-1,16-dicarboxylic acid]","Markers for the formation of the horny layer (LEP): LEP16 expression, multiplicative factor vs control",[2]; 1 μg/ml,LEP16 (×3.0)
same,"Markers for the formation of the horny layer (LEP): LEP16 expression, multiplicative factor vs control",[2]; [4],capable of stimulating the expression
same,"Markers for intercorneocytic cohesion (Cdsn): Cdsn expression, multiplicative factor vs control",[1]; 1 μg/ml,Cdsn (×2.4)
same,"Markers for intercorneocytic cohesion (Cdsn): Cdsn expression, multiplicative factor vs control",[1]; [4],capable of stimulating the expression
same,"Re-epithelialization markers: HBEGF expression, multiplicative factor vs control",[3],HBEGF (×1.6)
same,"Re-epithelialization markers: HBEGF expression, multiplicative factor vs control","[3]; listed as 8-hexadecene-1,16-dicarboxylic acid",capable of stimulating the expression
"O=C(O)CO [Glycolic acid, reference compound]","Markers for the formation of the horny layer (LEP): LEP16 expression, multiplicative factor vs control",[2]; 100 μg/ml,LEP16 (×2.6)
same,"Markers for intercorneocytic cohesion (Cdsn): Cdsn expression, multiplicative factor vs control",[1]; 100 μg/ml,Cdsn (×1.6)
"CC(O)C(=O)O (stereo not shown) [Lactic acid, reference compound]","Markers for the formation of the horny layer (LEP): LEP16 expression, multiplicative factor vs control",[2]; 100 μg/ml,LEP16 (×1.6)
